Reference: patent US10961238B2, “Modulators of hedgehog (Hh) signaling pathway” (E-THERAPEUTICS PLC, priority 2016, dated 2021)

Columns and labels:
C3H10T1/2 cells = assay: C3H assay: differentiation of C3H10T1/2 cells by mSHH, measurement of alkaline phosphatase; type: cell-based, mouse; conditions: Mus musculus, C3H 10T1/2; C3H10T1/2 cells stimulated with mSHH for 72 hours; alkaline phosphatase activity; read-out: IC50 Ranges
SMO = target: T1, SMO (Homo sapiens, UniProt Q99835); assay: Smoothened (SMO) binding fluorescence polarisation assay (BODIPY-cyclopamine competition); conditions: SMO binding FP assay versus C3H10T1/2 cellular assay
T1 construct: expressed in transfected cells; host or cells: HEK293
Experimental: Standard Protocol for Smoothened (SMO) Binding Fluorescence Polarisation Assay.
The assay measures the ability of the test compounds to compete with a fluorescently-labelled version of the known ligand, cyclopamine, for binding to SMO. The fluorescent tag used is BODIPY (boron dipyrromethene).
An aliquot of a membrane preparation from a SMO-over-expressing HEK293 cell line is diluted to protein concentration of 0.117 mg/ml in assay buffer (25 mM HEPES, 2 mM EDTA, 0.05% γ-globulin, 0.01% pluronic acid pH7.4, plus protease Inhibitor cocktail). 8.5 μl of the membrane suspension is added to each well of a black, low volume 384 well microtitre plate.
Test compounds are added in a seven point dilution range to the wells containing the membrane preparation. The final DMSO solvent concentration in the wells is maintained at 0.3%. 6.5 μl of a 6.9 nM BODIPY-cyclopamine solution is added to each of the wells (final assay concentration 3 nM).
The plate is sealed and stored in the dark at room temperature for 24 hours prior to measurement of the fluorescence polarisation signal on a Perkin Elmer Envision multi-label reader.
Table 4 below details the ratio of SMO binding compared to the potency in the C3H10T1/2 cellular assay. The small ratio between SMO binding and potency for vismodegib is considered to be reflective of the fact vismodegib acts mainly through inhibition of the SMO protein. The larger ratios for the compound of the invention are considered to be reflective of alternate actions outside of direct SMO inhibition.

T1 sequence (Q99835 28-787): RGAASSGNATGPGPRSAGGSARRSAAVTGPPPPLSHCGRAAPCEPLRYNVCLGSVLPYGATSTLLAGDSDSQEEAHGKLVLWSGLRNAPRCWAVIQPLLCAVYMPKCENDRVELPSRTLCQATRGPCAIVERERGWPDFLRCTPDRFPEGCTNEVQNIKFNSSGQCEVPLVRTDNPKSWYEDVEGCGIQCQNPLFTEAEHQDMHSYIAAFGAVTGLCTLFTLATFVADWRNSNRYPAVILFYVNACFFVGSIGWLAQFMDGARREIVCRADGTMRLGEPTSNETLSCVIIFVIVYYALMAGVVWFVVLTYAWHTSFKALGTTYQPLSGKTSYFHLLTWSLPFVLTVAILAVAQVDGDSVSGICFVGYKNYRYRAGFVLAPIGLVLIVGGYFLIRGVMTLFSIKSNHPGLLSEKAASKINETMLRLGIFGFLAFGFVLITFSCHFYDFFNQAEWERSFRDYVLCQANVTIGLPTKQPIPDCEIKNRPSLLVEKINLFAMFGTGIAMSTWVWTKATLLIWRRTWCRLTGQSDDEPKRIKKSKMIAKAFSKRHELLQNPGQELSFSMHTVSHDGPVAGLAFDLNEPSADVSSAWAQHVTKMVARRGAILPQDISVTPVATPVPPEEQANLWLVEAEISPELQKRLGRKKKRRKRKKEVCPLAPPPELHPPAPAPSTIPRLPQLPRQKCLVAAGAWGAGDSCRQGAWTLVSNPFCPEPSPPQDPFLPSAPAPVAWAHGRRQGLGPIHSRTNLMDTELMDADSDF

Row | SMILES | IC50 (C3H10T1/2 cells) [nM] | Ratio of potency in SMO binding assay to potency in C3H10T1/2 cellular assay (SMO)
1 | O=C(OCC1CCCO1)N1CC(S(=O)(=O)N2CCC(c3c[nH]c4ncccc34)CC2)C1 (centres unmarked) [Compound 67, (oxolan-2-yl)methyl 3-[4-(1H-pyrrolo [2,3-b]pyridin-3-yl)piperidin-1-yl]sulfonylaze-tidine-1-carboxylate] | 10 to 100 | 45
2 | CC(C)OC(=O)N1CC(S(=O)(=O)N2CCC(c3c[nH]c4ncccc34)CC2)C1 [Compound 97, propan-2-yl 3-[4-(1H-pyrrolo[2,3-b]pyridin-3-yl)piperidin-1-yl]sulfonylaze-tidine-1-carboxylate] | 100 to 1000 | 22
3 | CN(C)c1ccc(C2CCN(S(=O)(=O)C3CCN(C(=O)OC(C)(C)C)CC3)CC2)cc1 [Compound 112] | 100 to 1000 | 42
4 | COc1cnc2[nH]cc(C3CCN(S(=O)(=O)C4CCN(C(=O)OC(C)(C)C)CC4)CC3)c2c1 [Compound 115, tert-butyl 4-[4-(5-methoxy-1H-pyrrolo[2,3-b]pyridin-3-yl)piperidin-1-yl]sulfonylpiper-idine-1-carboxylate] | 100 to 1000 | 20
5 | Cn1cc(-c2cnc3[nH]cc(C4CCN(S(=O)(=O)C5CN(C(=O)OC(C)(C)C)C5)CC4)c3c2)cn1 [Compound 122, tert-butyl 3-[4-[5-(1-methylpyrazol-4-yl)-1H-pyrrolo [2,3-b]pyridin-3-yl]piperidin-1-yl]sulfonylaze-tidine-1-carboxylate] | 100 to 1000 | >55
6 | CC(C)(C)OC(=O)N1CC(S(=O)(=O)N2CCC(c3coc4cccnc34)CC2)C1 [Compound 131, tert-Butyl 3-[(4-furo[3,2-b]pyridin-3-yl-1-piperidyl)sulfonyl]azetidine-1-carboxylate] | 10 to 100 | 84
7 | O=C(OC[C@H]1CCCO1)N1CC(S(=O)(=O)N2CCC(c3c[nH]c4ncccc34)CC2)C1 [Compound 162, [(2R)-oxolan-2-yl]methyl 3-[4-(1H-pyrrolo[2,3-b]pyridin-3-yl)piperidin-1-yl]sulfonylaze-tidine-1-carboxylate] | 10 to 100 | 20
8 | CC(C)(C)OC(=O)N1CC(S(=O)(=O)N2CC=C(c3c[nH]c4ncccc34)CC2)C1 [Compound 228, tert-butyl 3-[[4-(1H-pyrrolo[2,3-b]pyridin-3-yl)-3,6-dihydro-2H-pyridin-1-yl]sulfonyl] azetidine-1-carboxylate] | 100 to 1000 | 20
9 | Cc1ccc(S(=O)(=O)n2ccc3c(C4=CCN(S(=O)(=O)C5CCN(C(=O)OC(C)(C)C)CC5)CC4)ncnc32)cc1 [Compound 239, tert-butyl 4-[[4-[7-(4-methylphenyl)sulfonylpyrrolo[2,3-d]pyrimidin-4-yl]-3,6-dihydro-2H-pyridin-1-yl]sulfonyl] piperidine-1-carboxylate] | 100 to 1000 | >37
10 | CC1(C)COCN1C(=O)N1CC(S(=O)(=O)N2CCC(c3c[nH]c4ncccc34)CC2)C1 [Compound 256, (4,4-dimethyl-1,3-oxazolidin-3-yl)-[3-[4-(1H-pyrrolo[2,3-b]pyridin-3-yl)piperidin-1-yl]sulfonylaze-tidin-1-yl]methanone] | 10 to 100 | 2.7
11 | COC(=O)[C@H]1C[C@H](S(=O)(=O)N2CCC(c3c[nH]c4ncccc34)CC2)C1 [Compound 274, methyl trans-3-[4-(1H-pyrrolo[2,3-b]pyridin-3-yl)piperidin-1-yl]sulfonylcycl obutane-1-carboxylate] | 100 to 1000 | >10
12 | Cc1noc(C)c1CNC(=O)C1CC(S(=O)(=O)N2CCC(c3c[nH]c4ncccc34)CC2)C1 (centres unmarked) [Compound 284, N-[(3,5-dimethyl-1,2-oxazol-4-yl)methyl]-3-[4-(1H-pyrrolo [2,3-b]pyridin-3-yl)piperidin-1-yl]sulfonylcycl obutane-1-carboxamide] | 100 to 1000 | 2.3
13 | Cc1noc(C)c1NC(=O)C1CC(S(=O)(=O)N2CCC(c3c[nH]c4ncccc34)CC2)C1 (centres unmarked) [Compound 285, N-(3,5-dimethyl-1,2-oxazol-4-yl)-3-[4-(1H-pyrrolo [2,3-b]pyridin-3-yl)piperidin-1-yl]sulfonylcycl obutane-1-carboxamide] | 10 to 100 | 2.9
14 | O=C(NCCS(=O)(=O)N1CCC(c2c[nH]c3ncccc23)CC1)OC1CCCCC1 [Compound 292, cyclohexyl N-[2-[4-(1H-pyrrolo-[2,3-b]pyridin-3-yl)piperidin-1-yl]sulfonylethyl] carbamate] | 100 to 1000 | 4.3
15 | Cc1noc(C)c1NC(=O)N1CC(S(=O)(=O)N2CCC(c3nc4ccccc4s3)CC2)C1 [Compound 294, 3-[4-(1,3-benzothiazol-2-yl)piperidin-1-yl]sulfonyl-N-(3,5-dimethyl-1,2-oxazol-4-yl)azetidine-1-carboxamide] | 100 to 1000 | 5.0
16 | O=C([C@H]1C[C@@H](S(=O)(=O)N2CCC(c3c[nH]c4ncccc34)CC2)C1)N1CCOCC1 [Compound 296, cis-morpholin-4-yl-[3-[4-(1H-pyrrolo[2,3-b]pyridin-3-yl)piperidin-1-yl]sulfonylcyclobutyl] methanone] | 100 to 1000 | 3.8
17 | O=C(NC1(C(F)(F)F)CC1)[C@H]1C[C@H](S(=O)(=O)N2CCC(c3c[nH]c4ncccc34)CC2)C1 [Compound 298, trans-3-[4-(1H-pyrrolo[2,3-b]pyridin-3-yl)piperidin-1-yl]sulfonyl-N-[1-(trifluoromethyl)cyclopropyl] cyclobutane-1-carboxamide] | 100 to 1000 | 4.9
18 | O=C([C@H]1C[C@H](S(=O)(=O)N2CCC(c3c[nH]c4ncccc34)CC2)C1)N1CCOCC1 [Compound 308, trans-morpholin-4-yl-[3-[4-(1H-pyrrolo [2,3-b]pyridin-3-yl)piperidin-1-yl]sulfonyl-cyclobutyl] methanone] | 100 to 1000 | 4.8
19 | O=S(=O)(C1CN(CC2(C(F)(F)F)CC2)C1)N1CCC(c2c[nH]c3ncccc23)CC1 [Compound 313, 3-[1-[1-[[1-(trifluoromethyl)cyclopropyl]methyl]azetidin-3-yl]sulfonylpiperidin-4-yl]-1H-pyrrolo[2,3-b]pyridine] | 100 to 1000 | 2.7
20 | CC(C)(C)C(=O)CN1CC(S(=O)(=O)N2CCC(c3c[nH]c4ncccc34)CC2)C1 [Compound 314, 3,3-dimethyl-1-[3-[4-(1H-pyrrolo[2,3-b]pyridin-3-yl)piperidin-1-yl]sulfonylaze-tidin-1-yl]butan-2-one] | 10 to 100 | 6.7
21 | CC(C)(C)NC(=O)N1CC(S(=O)(=O)N2CCC(c3ccc(Cl)cc3)CC2)C1 [Compound 319, N-tert-butyl-3-[4-(4-chlorophenyl)piperidin-1-yl]sulfonylaze-tidine-1-carboxamide] | 10 to 100 | 2.9
22 | C[C@@H](NC(=O)N1CC(S(=O)(=O)N2CCC(c3coc4cccnc34)CC2)C1)C(F)(F)F [Compound 328, 3-(4-furo[3,2-b]pyridin-3-ylpiperidin-1-yl)sulfonyl-N-[(2R)-1,1,1-trifluoropropan-2-yl]azetidine-1-carboxamide] | 10 to 100 | 3.2
23 | O=C(CC(O)(C(F)(F)F)C(F)(F)F)N1CC(S(=O)(=O)N2CCC(c3c[nH]c4ncccc34)CC2)C1 [Compound 333, 4,4,4-trifluoro-3-hydroxy-1-[3-[[4-(1H-pyrrolo[2,3-b]pyridin-3-yl)-1-piperidyl]sulfonyl]azetidin-1-yl]-3-(trifluoromethyl)butan-1-one] | 10 to 100 | 2.5
24 | O=C(CC(O)(C(F)(F)F)C(F)(F)F)N1CC(S(=O)(=O)N2CCC(c3coc4cccnc34)CC2)C1 [Compound 334, 4,4,4-trifluoro-1-[3-(4-furo[3,2-b]pyridin-3-ylpiperidin-1-yl)sulfonylaze-tidin-1-yl]-3-hydroxy-3-(trifluoromethyl) butan-1-one] | 10 to 100 | 2.6
25 | Cc1ccc2c(C3CCN(S(=O)(=O)C4CN(C(=O)OC(C)(C)C)C4)CC3)c[nH]c2n1 [Compound 347, tert-butyl 3-[4-(6-methyl-1H-pyrrolo [2,3-b]pyridin-3-yl)piperidin-1-yl]sulfonylaze-tidine-1-carboxylate] | 10 to 100 | 3.8
